Measurements taken from patent publication US20240207263A1, “SELECTIVE MODULATORS OF ATAXIA TELA[…] (ATM) KINASE AND USES THEREOF” (priority 2021, published 2024).

The compounds below were run against ATM (Homo sapiens (Human), UniProt Q13315) (assay: biochemical). Conditions: read-out: ATM IC50.
Format: biochemical
Source text: Assay a): ATM Biochemical Potency
Data was collected by Caliper.

ATM, sequence (Q13315 whole entry, looked up): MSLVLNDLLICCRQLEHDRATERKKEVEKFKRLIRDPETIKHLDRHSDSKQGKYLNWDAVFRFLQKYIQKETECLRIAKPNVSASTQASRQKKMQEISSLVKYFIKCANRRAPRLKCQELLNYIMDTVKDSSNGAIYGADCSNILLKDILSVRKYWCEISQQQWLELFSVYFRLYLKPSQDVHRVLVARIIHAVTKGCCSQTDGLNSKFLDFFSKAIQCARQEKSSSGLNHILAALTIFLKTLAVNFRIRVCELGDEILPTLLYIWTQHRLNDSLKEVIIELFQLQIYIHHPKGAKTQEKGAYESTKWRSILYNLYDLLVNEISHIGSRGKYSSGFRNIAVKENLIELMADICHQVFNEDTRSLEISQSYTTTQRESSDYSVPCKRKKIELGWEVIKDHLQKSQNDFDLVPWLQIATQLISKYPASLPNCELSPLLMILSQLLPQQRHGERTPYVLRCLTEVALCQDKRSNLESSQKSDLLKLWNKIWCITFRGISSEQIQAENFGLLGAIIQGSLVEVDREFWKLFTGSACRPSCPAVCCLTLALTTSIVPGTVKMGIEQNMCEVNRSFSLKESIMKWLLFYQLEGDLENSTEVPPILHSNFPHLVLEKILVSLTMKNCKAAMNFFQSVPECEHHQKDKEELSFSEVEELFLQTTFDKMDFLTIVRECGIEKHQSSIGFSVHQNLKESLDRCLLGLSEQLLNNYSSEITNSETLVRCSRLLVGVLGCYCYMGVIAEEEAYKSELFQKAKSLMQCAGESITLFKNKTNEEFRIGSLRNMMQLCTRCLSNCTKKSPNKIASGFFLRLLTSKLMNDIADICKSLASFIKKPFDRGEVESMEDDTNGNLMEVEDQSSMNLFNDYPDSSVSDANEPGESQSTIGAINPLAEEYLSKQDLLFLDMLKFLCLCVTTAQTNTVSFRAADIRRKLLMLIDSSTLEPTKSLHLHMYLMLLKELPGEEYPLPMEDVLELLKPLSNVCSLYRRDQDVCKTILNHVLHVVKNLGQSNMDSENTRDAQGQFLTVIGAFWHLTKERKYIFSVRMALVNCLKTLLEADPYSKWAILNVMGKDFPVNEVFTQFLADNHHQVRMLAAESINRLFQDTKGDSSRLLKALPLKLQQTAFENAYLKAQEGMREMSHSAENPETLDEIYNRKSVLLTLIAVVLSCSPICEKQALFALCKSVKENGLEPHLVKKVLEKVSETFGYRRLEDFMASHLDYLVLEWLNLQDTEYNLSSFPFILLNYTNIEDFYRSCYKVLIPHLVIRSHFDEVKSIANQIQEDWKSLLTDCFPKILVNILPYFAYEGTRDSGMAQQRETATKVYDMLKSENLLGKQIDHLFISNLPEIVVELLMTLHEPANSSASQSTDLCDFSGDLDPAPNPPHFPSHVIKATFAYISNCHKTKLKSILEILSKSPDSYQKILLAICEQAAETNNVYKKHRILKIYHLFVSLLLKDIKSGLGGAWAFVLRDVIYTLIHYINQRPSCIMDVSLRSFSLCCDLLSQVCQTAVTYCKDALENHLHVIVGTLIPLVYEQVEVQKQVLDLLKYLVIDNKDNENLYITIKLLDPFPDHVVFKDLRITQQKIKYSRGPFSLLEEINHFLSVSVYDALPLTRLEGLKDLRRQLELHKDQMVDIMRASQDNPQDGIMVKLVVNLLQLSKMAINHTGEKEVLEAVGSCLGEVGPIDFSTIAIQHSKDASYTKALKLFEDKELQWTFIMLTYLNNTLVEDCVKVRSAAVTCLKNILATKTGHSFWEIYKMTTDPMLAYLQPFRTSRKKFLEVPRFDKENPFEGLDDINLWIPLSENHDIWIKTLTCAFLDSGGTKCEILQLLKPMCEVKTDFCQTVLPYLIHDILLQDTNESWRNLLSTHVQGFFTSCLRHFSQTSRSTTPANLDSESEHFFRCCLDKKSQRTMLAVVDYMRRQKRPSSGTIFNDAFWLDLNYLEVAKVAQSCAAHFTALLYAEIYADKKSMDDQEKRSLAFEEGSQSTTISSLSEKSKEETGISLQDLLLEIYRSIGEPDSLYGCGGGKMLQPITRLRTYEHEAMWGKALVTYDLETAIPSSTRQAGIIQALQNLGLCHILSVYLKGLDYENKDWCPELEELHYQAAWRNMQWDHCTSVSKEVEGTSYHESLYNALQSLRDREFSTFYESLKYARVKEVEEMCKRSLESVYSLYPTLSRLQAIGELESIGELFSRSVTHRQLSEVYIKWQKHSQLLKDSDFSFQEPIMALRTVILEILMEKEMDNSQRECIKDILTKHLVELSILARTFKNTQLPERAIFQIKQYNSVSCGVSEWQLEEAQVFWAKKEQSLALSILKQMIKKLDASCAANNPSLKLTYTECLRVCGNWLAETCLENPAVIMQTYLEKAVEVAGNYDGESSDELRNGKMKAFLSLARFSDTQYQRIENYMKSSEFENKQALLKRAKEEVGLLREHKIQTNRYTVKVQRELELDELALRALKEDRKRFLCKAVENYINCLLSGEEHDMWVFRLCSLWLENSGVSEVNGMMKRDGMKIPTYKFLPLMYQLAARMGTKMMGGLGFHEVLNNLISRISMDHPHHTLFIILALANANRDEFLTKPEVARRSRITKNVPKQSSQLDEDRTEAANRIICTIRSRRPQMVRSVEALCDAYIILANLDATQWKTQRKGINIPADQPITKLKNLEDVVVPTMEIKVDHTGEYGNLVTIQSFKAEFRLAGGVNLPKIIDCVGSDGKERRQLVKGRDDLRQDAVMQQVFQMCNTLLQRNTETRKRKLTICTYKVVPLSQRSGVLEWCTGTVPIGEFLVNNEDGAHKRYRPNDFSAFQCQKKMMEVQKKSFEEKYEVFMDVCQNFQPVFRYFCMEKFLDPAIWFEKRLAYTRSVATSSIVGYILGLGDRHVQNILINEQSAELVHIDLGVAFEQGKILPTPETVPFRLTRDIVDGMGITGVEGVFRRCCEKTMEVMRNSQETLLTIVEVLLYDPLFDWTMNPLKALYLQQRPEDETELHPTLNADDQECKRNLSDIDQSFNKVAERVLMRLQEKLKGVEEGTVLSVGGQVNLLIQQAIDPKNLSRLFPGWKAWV

Row | Compound | IC50
1 | CC(OCCN1CC2C(C1)C2(F)F)c1ccc(-c2ccc3nnc4c(c3c2)n(C(C)C)c(=O)n4C)cn1 (stereo in doubt) [Example 70, 8-(6-((1S)-1-(2-(6,6-difluoro-3-azabicyclo[3.1.0]hexan-3-yl)ethoxy)ethyl)pyridin-3-yl)-1-isopropyl-3-methyl-1H-imidazo[4,5-c]cinnolin-2(3H)-one] | 295 nM
2 | CC(OCCN1CC2C(C1)C2(F)F)c1ccc(-c2ccc3nnc4c(c3c2)n(C(C)C)c(=O)n4C)cn1 (stereo in doubt) [Example 71, 8-(6-((1R)-1-(2-(6,6-difluoro-3-azabicyclo[3.1.0]hexan-3-yl)ethoxy)ethyl)pyridin-3-yl)-1-isopropyl-3-methyl-1H-imidazo[4,5-c]cinnolin-2(3H)-one] | 9.3 nM
3 | CC(C)n1c(=O)n(C)c2nnc3ccc(-c4ccc(COCCN(C)C)nc4)cc3c21 [Example 2, 8-(6-((2-(dimethylamino)ethoxy)meth-yl)pyridin-3-yl)-1-isopropyl-3-methyl-1H-imidazo[4,5-c]cinnolin-2(3H)-one] | 53 nM
4 | CC(C)n1c(=O)n(C)c2nnc3ccc(-c4ccc(COCCN5CCCCC5)nc4)cc3c21 [Example 3, 1-isopropyl-3-methyl-8-(6-((2-(piperidin-1-yl)ethoxy)methyl)pyridin-3-yl)-1H-imidazo[4,5-c]cinnolin-2(3H)-one] | 36 nM
5 | CC(C)n1c(=O)n(C)c2nnc3ccc(-c4ccc(COCCN5CCCC5)nc4)cc3c21 [Example 4, 1-isopropyl-3-methyl-8-(6-((2-(pyrrolidin-1-yl)ethoxy)methyl)pyridin-3-yl)-1H-imidazo[4,5-c]cinnolin-2(3H)-one] | 63 nM
6 | COCCOCc1ccc(-c2ccc3nnc4c(c3c2)n(C(C)C)c(=O)n4C)cn1 [Example 6, 1-isopropyl-8-(6-((2-methoxyethoxy)methyl)py-ridin-3-yl)-3-methyl-1H-imidazo[4,5-c]cinnolin-2(3H)-one] | 469 nM
7 | CC(C)n1c(=O)n(C)c2nnc3ccc(-c4ccc(COC5CCN(C)CC5)nc4)cc3c21 [Example 7, 1-isopropyl-3-methyl-8-(6-(((1-methylpiperidin-4-yl)oxy)methyl)pyridin-3-yl)-1H-imidazo[4,5-c]cinnolin-2(3H)-one] | 227 nM
8 | CC(C)n1c(=O)n(C)c2nnc3ccc(-c4ccc(COCCCN(C)C)nc4)cc3c21 [Example 8, 8-(6-((3-(dimethylamino)propoxy)methyl)pyridin-3-yl)-1-isopropyl-3-methyl-1H-imidazo[4,5-c]cinnolin-2(3H)-one] | 98 nM
9 | CC(C)n1c(=O)n(C)c2nnc3ccc(-c4ccc(COCC5CCN(C)CC5)nc4)cc3c21 [Example 9, 1-isopropyl-3-methyl-8-(6-(((1-methylpiperidin-4-yl)methoxy)methyl)pyridin-3-yl)-1H-imidazo[4,5-c]cinnolin-2(3H)-one] | 180 nM
10 | CC(C)n1c(=O)n(C)c2nnc3ccc(-c4ccc(COCC5CCCN5C)nc4)cc3c21 (centres unmarked) [Example 10, 1-isopropyl-3-methyl-8-(6-(((1-methylpyrrolidin-2-yl)methoxy)methyl)pyridin-3-yl)-1H-imidazo[4,5-c]cinnolin-2(3H)-one] | 105 nM
11 | CC(C)n1c(=O)n(C)c2nnc3ccc(-c4ccc(COC5CCN(C)C5)nc4)cc3c21 (centres unmarked) [Example 11, 1-isopropyl-3-methyl-8-(6-(((1-methylpyrrolidin-3-yl)oxy)methyl)pyridin-3-yl)-1H-imidazo[4,5-c]cinnolin-2(3H)-one] | 123 nM
12 | CC(C)n1c(=O)n(C)c2nnc3ccc(-c4ccc(COCCCN5CC6CC6C5)nc4)cc3c21 (centres unmarked) [Example 12, 8-(6-((3-(3-azabicyclo[3.1.0]hexan-3-yl)propoxy)methyl)pyridin-3-yl)-1-isopropyl-3-methyl-1H-imidazo[4,5-c]cinnolin-2(3H)-one] | 47 nM
13 | CC(C)n1c(=O)n(C)c2nnc3ccc(-c4ccc(COC5CCCN(C)C5)nc4)cc3c21 (centres unmarked) [Example 13, 1-isopropyl-3-methyl-8-(6-(((1-methylpiperidin-3-yl)oxy)methyl)pyridin-3-yl)-1H-imidazo[4,5-c]cinnolin-2(3H)-one] | 144 nM
14 | CC(C)n1c(=O)n(C)c2nnc3ccc(-c4ccc(COC5CC(N(C)C)C5)nc4)cc3c21 (centres unmarked) [Example 14, 8-(6-((3-(dimethylamino)cyclobuto-xy)methyl)pyridin-3-yl)-1-isopropyl-3-methyl-1H-imidazo[4,5-c]cinnolin-2(3H)-one] | 68 nM
15 | CC(C)n1c(=O)n(C)c2nnc3ccc(-c4ccc(COC5CN(C)C5)nc4)cc3c21 [Example 15, 1-isopropyl-3-methyl-8-(6-(((1-methylazetidin-3-yl)oxy)methyl)pyridin-3-yl)-1H-imidazo[4,5-c]cinnolin-2(3H)-one] | 134 nM
16 | CC(COCc1ccc(-c2ccc3nnc4c(c3c2)n(C(C)C)c(=O)n4C)cn1)N1CC2CC2C1 (centres unmarked) [Example 16, 8-(6-((2-(3-azabicyclo[3.1.0]hexan-3-yl)propoxy)methyl)pyridin-3-yl)-1-isopropyl-3-methyl-1H-imidazo[4,5-c]cinnolin-2(3H)-one] | 201 nM

Row | Compound | IC50
17 | CC(C)n1c(=O)n(C)c2nnc3ccc(-c4ccc(COCC(C)(C)N5CC6CC6C5)nc4)cc3c21 (centres unmarked) [Example 17, 8-(6-((2-(3-azabicyclo[3.1.0]hexan-3-yl)-2-methylpropoxy)methyl)pyridin-3-yl)-1-isopropyl-3-methyl-1H-imidazo[4,5-c]cinnolin-2(3H)-one] | 464 nM
18 | CC(C)n1c(=O)n(C)c2nnc3ccc(-c4ccc(COCC5(N6CC7CC7C6)CC5)nc4)cc3c21 (centres unmarked) [Example 18, 8-(6-(((1-(3-azabicyclo[3.1.0]hexan-3-yl)cyclopropyl)methoxy)methyl)pyridin-3-yl)-1-isopropyl-3-methyl-1H-imidazo[4,5-c]cinnolin-2(3H)-one] | 377 nM
19 | CC(C)n1c(=O)n(C)c2nnc3ccc(-c4ccc(COCC5CCCN(C)C5)nc4)cc3c21 (centres unmarked) [Example 19, 1-isopropyl-3-methyl-8-(6-(((1-methylpiperidin-3-yl)methoxy)methyl)pyridin-3-yl)-1H-imidazo[4,5-c]cinnolin-2(3H)-one] | 99 nM
20 | CC(C)n1c(=O)n(C)c2nnc3ccc(-c4ccc(COCC5CCN(C)C5)nc4)cc3c21 (centres unmarked) [Example 20, 1-isopropyl-3-methyl-8-(6-(((1-methylpyrrolidin-3-yl)methoxy)methyl)pyridin-3-yl)-1H-imidazo[4,5-c]cinnolin-2(3H)-one] | 51 nM
21 | CC(CN1CC2CC2C1)OCc1ccc(-c2ccc3nnc4c(c3c2)n(C(C)C)c(=O)n4C)cn1 (centres unmarked) [Example 21, 8-(6-(((1-(3-azabicyclo[3.1.0]hexan-3-yl)propan-2-yl)oxy)methyl)pyridin-3-yl)-1-isopropyl-3-methyl-1H-imidazo[4,5-c]cinnolin-2(3H)-one] | 139 nM
22 | CC(C)n1c(=O)n(C)c2nnc3ccc(-c4ccc(COC5(CN6CC7CC7C6)CC5)nc4)cc3c21 (centres unmarked) [Example 23, 8-(6-((1-(3-azabicyclo[3.1.0]hexan-3-ylmethyl)cyclopropoxy)methyl)pyridin-3-yl)-1-isopropyl-3-methyl-1H-imidazo[4,5-c]cinnolin-2(3H)-one] | 420 nM
23 | CC(C)n1c(=O)n(C)c2nnc3ccc(-c4ccc(COCCN5CCC(C#N)CC5)nc4)cc3c21 [Example 24, 1-(2-((5-(1-isopropyl-3-methyl-2-oxo-2,3-dihydro-1H-imidazo[4,5-c]cinnolin-8-yl)pyridin-2-yl)methoxy)ethyl)pyiperidine-4-carbonitrile] | 26 nM
24 | CC(C)n1c(=O)n(C)c2nnc3ccc(-c4ccc(COCCN5CCC(C#N)C5)nc4)cc3c21 (centres unmarked) [Example 25] | 71 nM
25 | CC(C)n1c(=O)n(C)c2nnc3ccc(-c4ccc(COCCN5CCC6(CC6)C5)nc4)cc3c21 [Example 26, 8-(6-((2-(5-azaspiro[2.4]heptan-5-yl)ethoxy)methyl)pyridin-3-yl)-1-isopropyl-3-methyl-1H-imidazo[4,5-c]cinnolin-2(3H)-one] | 14 nM
26 | COC1CCN(CCOCc2ccc(-c3ccc4nnc5c(c4c3)n(C(C)C)c(=O)n5C)cn2)CC1 [Example 27, 1-isopropyl-8-(6-((2-(4-methoxypiperidin-1-yl)ethoxy)methyl)pyridin-3-yl)-3-methyl-1H-imidazo[4,5-c]cinnolin-2(3H)-one] | 92 nM
27 | CC(C)n1c(=O)n(C)c2nnc3ccc(-c4ccc(COCCN5CC[C@@H](F)C5)nc4)cc3c21 [Example 28, (R)-8-(6-((2-(3-fluoropyrrolidin-1-yl)ethoxy)methyl)pyridin-3-yl)-1-isopropyl-3-methyl-1H-imidazo[4,5-c]cinnolin-2(3H)-one] | 81 nM
28 | CC(C)n1c(=O)n(C)c2nnc3ccc(-c4ccc(COCCN5CCC[C@@H]5C)nc4)cc3c21 [Example 29, (S)-1-isopropyl-3-methyl-8-(6-((2-(2-methylpyrrolidin-1-yl)ethoxy)methyl)pyridin-3-yl)-1H-imidazo[4,5-c]cinnolin-2(3H)-one] | 68 nM
29 | CC(C)n1c(=O)n(C)c2nnc3ccc(-c4ccc(COCCN5CCC(F)(F)CC5)nc4)cc3c21 [Example 30, 8-(6-((2-(4,4-difluoropiperidin-1-yl)ethoxy)methyl)pyridin-3-yl)-1-isopropyl-3-methyl-1H-imidazo[4,5-c]cinnolin-2(3H)-one] | 62 nM
30 | CC(C)n1c(=O)n(C)c2nnc3ccc(-c4ccc(COCCN5CCN(C)CC5)nc4)cc3c21 [Example 32, 1-isopropyl-3-methyl-8-(6-((2-(4-methylpiperazin-1-yl)ethoxy)methyl)pyridin-3-yl)-1H-imidazo[4,5-c]cinnolin-2(3H)-one] | 304 nM
31 | CC(C)n1c(=O)n(C)c2nnc3ccc(-c4ccc(COCCN5CCOCC5)nc4)cc3c21 [Example 33, 1-isopropyl-3-methyl-8-(6-((2-morpholinoethoxy)methyl)pyridin-3-yl)-1H-imidazo[4,5-c]cinnolin-2(3H)-one] | 58 nM
32 | CC(C)n1c(=O)n(C)c2nnc3ccc(-c4ccc(COCCN5CC[C@H](F)C5)nc4)cc3c21 [Example 34, (S)-8-(6-((2-(3-fluoropyrrolidin-1-yl)ethoxy)methyl)pyridin-3-yl)-1-isopropyl-3-methyl-1H-imidazo[4,5-c]cinnolin-2(3H)-one] | 47 nM
